From patent US20240398785A1, “SMALL MOLECULE DRUGS FOR THE INDUCTION OF TRAINED IMMUNITY” (THE UNIVERSITY OF CHICAGO, priority 2023, published 2024) come the findings set out here.

The test system of experiment [1] is bone marrow-derived macrophages (BMDMs). Kind of experiment: High-throughput trained immunity screening (TNF-α by HEK-Blue Quanti-Blue assay). The note with it: Mus musculus, BMDM, read-out: Fold Change (TNF-α production increase over untrained control).
Description: High-throughput trained immunity screening: Mature BMDMs were plated at 25,000 cells per well in 45 μL media in 384-well flat-bottomed plates using the Thermo Multidrop Combi liquid handler. Cells were rested overnight at 37° C. and 5% CO2. The following day, training compounds from the Microsource Spectrum Library were added at a volume of 45 nL using the PerkinElmer Janus G3 with Pintools for a final concentration of 1 μM. On day 2, supernatant was removed using the Janus, cells were washed with warm PBS using the Multidrop, and fresh media was added to the cells using the Multidrop. On day 5, cell density was quantified using the IncuCyte imager and software, then cells received media containing 25 ng/mL IFN-7 (BD Biosciences) for 24 hours. On day 6, cells were stimulated with 25 ng/mL Pam3-CSK4 (Invivogen). Supernatant was collected on day 6 and on day 7 following 24 hours of TLR stimulation, and it was stored at −80° C.
To measure TNF-α concentration in the supernatant, a high-throughput Quanti-Blue assay was used. HEK-Blue TNF-α cells (Invivogen) were plated at a density of 25,000 cells per well in 45 μL media (DMEM, 10% HIFBS). 5 μL of supernatant is added to each well using the Janus liquid handler, then the plates were incubated for 24 hours at 37° C. and 5% CO2. The following day, 20 μL of concentrated Quanti-Blue reagent was added to each well using the Combi liquid handler, and the plate was shaken for one minute. Then, the plate incubated at room temperature for 15 minutes before absorbance was measured at 628 nm using the BioTek Synergy NEO 2. All data is represented as a fold change relative to the average of the Pam3 only untrained control (n=20) on each plate.
An additional plate was seeded alongside the screen plates for a manual training assay and ELISA measurement of cytokine secretion to confirm that the BMDMs were behaving as expected. […] On Day 5, each well was imaged using an IncuCyte to quantify cell viability relative to the untrained controls.^20 Furthermore, the cells were checked to see if they maintained a resting phenotype before TLR stimulation by collecting and freezing the supernatant on Day 6 to measure TNF-α concentration after the assay was complete. Trained immunity effects are distinct from innate immune priming, so we checked that the cells maintained a resting phenotype before TLR stimulation by collecting and freezing the supernatant from each of the three screening replicates on Day 6 to measure TNF-α concentration after the assay was complete (FIG. 1F).
For each replicate of the screen, a modified version of the standard 7-day training assay was used.^18 TNF-α concentration was measured using a high throughput Quanti-Blue assay in HEK-Blue TNF-α cells. Concentration is proportional to absorbance measured at 628 nm within the range of the assay. 2,000 small molecules from the MicroSource Spectrum Library were screened.
The test system is the same in experiment [2]. Kind of experiment: Chemical inhibition of training (MTA, EGCG, 2DG pre-treatment). Type of experiment: cell-based, mouse. As to the method:
FIG. 3D is a graph of a glycolysis inhibition assay using 1 mM 2DG and measuring TNF-α concentration following Pam3 challenge in cells trained with 10 μM hydrocortisone after 1 h of pre-treatment with PBS or 2DG (n=15). FIGS. 3E-3I are graphs of TNF-α concentration following Pam3 challenge in cells trained with M 5-Fluoroindole-2-Carboxylic Acid (FIG. 3E), Myricetin (FIG. 3F), Nerol (FIG. 3G), Hydroquinone (FIG. 3H), or Fenoterol hydrobromide (FIG. 3I) after pre-treatment with PBS or glycolysis inhibitor, 2DG (n=15). […] All values are expressed as mean±SEM, and statistics were conducted using 2-way ANOVA with Sidak's multiple comparisons test (significance compared with untrained group). *P<0.05, **P<0.01, ***P<0.001, ****P<0.0001, n.s., not significant.
For inhibition studies, BMDMs received inhibitors at specified concentrations 1 h prior to stimulation with training molecules, and inhibitors were present for the entire 24 h training period. […] To test metabolic pathway involvement, cells were pretreated with 1 mM 2′ deoxy-D-glucose.
Upregulation of glycolysis is commonly implicated as one of the underlying mechanisms in the induction of trained immunity.

Another experiment relates to peritoneal cells. Kind of experiment: Peritoneal lavage spectral flow cytometry 2 h after LPS challenge. Type of experiment: in vivo, mouse. As to the method: FIG. 4A is a schematic drawing showing a method of screening small molecule inducers of trained immunity in vivo. Mice were injected intraperitoneally (i.p.) with small molecules or vehicle control on days 0, 2, and 4. Mice were challenged with 1 μg lipopolysaccharide (LPS) on day 11 and then bled 1 hour (h) later. […] All values are expressed as mean±SEM, and statistics were conducted using 1-way ANOVA or 2-way ANOVA with multiple comparisons (significance compared with untrained group). *P<0.05, **P<0.01, ***P<0.001, ****P<0.0001, n.s., not significant. All values are expressed as mean±SEM, and statistics were conducted using 1-way ANOVA with two-stage linear step-up procedure (significance compared with untrained group). *P<0.05, **P<0.01, ***P<0.001, ****P<0.0001, n.s., not significant.
To determine which cells were involved, mice were given training injections and challenged as previously described. Then, 2 h after challenge, the mice were sacrificed, and peritoneal cells were collected by lavage. The cells were fixed and stained for intracellular TNF-α and IL-6 and surface costimulatory markers, CD40, CD86, and MHCII. Lineage markers were included for innate immune cells, including neutrophils, eosinophils, monocytes, macrophages, and dendritic cells. The stained cells were then analyzed via spectral flow cytometry.
The activation of these cells and changes to co-stimulatory molecules were then investigated.
A general note: In flow cytometry, cells or beads pass a laser one at a time.

The subject of experiment [3] is bone marrow-derived macrophages (BMDMs). Description: In vitro trained immunity assay (ELISA, TLR agonist challenge). Type of experiment: cell-based, mouse. The note with it: for IL-6 production following challenge: 100 ng/mL Pam3.
Description: FIG. 2H is a graph showing TNF-α concentration from BMDMs trained with PBS or hydrocortisone at a concentration of 10 μM followed by challenge with 100 nanograms per milliliter (ng/mL) lipopolysaccharide (LPS) or Pam3 (n=30). […] FIG. 2I is a graph showing TNF-α or interleukin-6 (IL-6) concentration from BMDMs treated with 10 μM hit compounds one hour (hr) prior to 24 hr stimulation with 100 ng/mL Pam3 (n=6). […] All values are expressed as mean±SEM, and statistics were conducted using 1-way ANOVA with Dunnett's multiple comparisons test (significance compared with untrained group). *P<0.05, **P<0.01, ***P<0.001, ****P<0.0001, n.s., not significant.
TNF-α (FIG. 13D) and IL-6 (FIG. 13E) were measured from BMDM cell culture supernatant 24 h following treatment with small molecules or β-glucan.
In vitro trained immunity assay: Mature BMDMs were plated at 10^5 cells per well in 200 L media in 96-well flat-bottomed plates and rested overnight at 37° C. and 5% CO2. The following day, training molecules were added at specified concentrations and incubated for 24 hours. After training, cells were washed with warm PBS and rested for 3 days in fresh media. On day 5, cells received fresh media containing 25 ng/mL IFN-7 (BD Biosciences) for 24 hours. On day 6, cells were stimulated with 100 ng/mL Pam3CSK4 (Invivogen). Cell supernatant was collected 24 hours after stimulation. Supernatants were measured for IL-6 and TNF-α concentrations using ELISA MAX Deluxe kits (BioLegend) according to manufacturer's instructions.
To select an optimal concentration and agonist pairing, a series of ELISAs were performed to validate the training effects.
The mark [4] stands for this setting: glycolysis inhibitor 2-deoxy-D-glucose 1 mM.
Where [5] appears, read: peritoneal lavage, 2 h after challenge.

SMILES strings stand for the structures. Structures can show the parent of a compound that is named as a salt. Where two headings read alike, the source gives them in different places.

Turning to `CC1(C)O[C@@H]2C[C@H]3[C@@H]4C[C@H](F)C5=CC(=O)C=C[C@]5(C)[C@@]4(F)[C@@H](O)C[C@]3(C)[C@]2(C(=O)CO)O1` [Fluocinolone acetonide], in experiment [1], the fold induction at 1 µM amounted to 2.28. With `CN1CCCN=C1COC(=O)C(O)(c1ccccc1)C1CCCCC1` (centres unmarked) [Oxyphencyclimine hydrochloride], the fold induction at 1 µM in experiment [1] was determined as 1.67. For the molecule `O=c1[nH]c(=O)n([C@H]2C[C@H](O)[C@@H](CO)O2)cc1F` [Floxuridine], in experiment [1], the fold induction at 1 µM was 1.6. Still for that read-out and setting: under `CCC(C)(C)C(=O)O[C@H]1C[C@@H](C)C=C2C=C[C@H](C)[C@H](CC[C@@H]3C[C@@H](O)CC(=O)O3)[C@H]21` [Simvastatin] stands 1.61. Turning to `CC1(C)O[C@@H]2C[C@H]3[C@@H]4C[C@H](F)C5=CC(=O)C=C[C@]5(C)[C@H]4[C@@H](O)C[C@]3(C)[C@]2(C(=O)CO)O1` [Flunisolide], the “training (TNF-α after Pam3) after 2DG pre-treatment” value (“training … after 2DG pre-treatment” for short) in experiment [2] (setting [4]) is “significant inhibition of training”. Besides, in experiment [2] (histone acetyltransferase inhibitor EGCG 15 μM, 10 μM compound), the “training (TNF-α after Pam3) after EGCG pre-treatment” value is “slightly reduce training though statistical significance was not achieved”. Moreover, the “training (TNF-α after Pam3) after MTA pre-treatment” value in experiment [2] (methyltransferase inhibitor MTA 500 μM, 10 μM compound) is “significant inhibition of training”. Further, in experiment [1], the fold induction at 1 µM worked out at 2.49. Also, the “cell count in the peritoneal lavage” value in the experiment on peritoneal cells (2 h after challenge) is on record as “increased cell count”. In the experiment on peritoneal cells (peritoneal lavage), the “CD86 on eosinophils and small peritoneal macrophages (MFI of CD86+ cells)” value was “increased amount”; the “MFI of MHCII+ SPMs” value is “increased”. In the experiment with peritoneal cells (setting [5]), the “number of TNF-α+ and IL-6+ eosinophils” value is given as “significant increases”. As to `N#Cc1c(Cl)c(Cl)c(Cl)c(C#N)c1Cl` [Tetrachloroisophthalonitrile], in experiment [1], the fold induction at 1 µM stood at 1.61. The same measure, in the same setting: under `CCC(=O)O[C@]1(C(=O)CCl)[C@@H](C)C[C@H]2[C@@H]3CCC4=CC(=O)C=C[C@]4(C)[C@@]3(F)[C@@H](O)C[C@@]21C` [Clobetasol propionate] stands 2.07. In the case of `C[C@]12CCC(=O)C=C1CC[C@@H]1[C@@H]2[C@@H](O)C[C@@]2(C)[C@H]1CC[C@]2(O)C(=O)CO` [Hydrocortisone], the “training … after 2DG pre-treatment” value in experiment [2] (setting [4]) was “significant inhibition of training”. For the same molecule, the fold induction at 1 µM in experiment [1] was 1.78. Also, the “IL-6 production following challenge” value in experiment [3] was “increased production of IL-6”. Also, the “TNF-α training effect with TLR4 and TLR1/2 agonists” value in experiment [3] (10 μM, challenge 100 ng/mL LPS or Pam3, n=30) is recorded as “Training effects were observed”.

`CC1(C)O[C@@H]2C[C@H]3[C@@H]4CCC5=CC(=O)CC[C@]5(C)[C@@]4(F)[C@@H](O)C[C@]3(C)[C@]2(C(=O)CCl)O1` [Halcinonide]: in experiment [1], the fold induction at 1 µM amounted to 2.7. As for `NC(=O)N/N=C/c1ccc([N+](=O)[O-])o1` [Nitrofurazone], in experiment [1], the fold induction at 1 µM amounted to 1.69.

As to `Oc1ccc(Cl)cc1Cc1cc(Cl)ccc1O` [Dichlorophene], in experiment [1], the fold induction at 1 µM was determined as 1.61. Take `O=C(O)c1cc2cc(F)ccc2[nH]1` [5-Fluoroindole-2-carboxylic acid]: the “training … after 2DG pre-treatment” value in experiment [2] is listed as “not susceptible to suppression of training”. Further, in experiment [1], the fold induction at 1 µM was determined as 2.47.

For the molecule `C[C@]12C=CC(=O)C=C1CC[C@H]1[C@@H]3C[C@@H](O)[C@](O)(C(=O)CO)[C@@]3(C)C[C@H](O)[C@@]12F` [Triamcinolone], the fold induction at 1 µM in experiment [1] was determined as 1.76. Same read-out and setting: under `CC(=O)OCC(=O)[C@@]1(O)CC[C@H]2[C@@H]3CCC4=CC(=O)CC[C@]4(C)[C@H]3[C@@H](O)C[C@@]21C` [Hydrocortisone acetate] stands 1.68; under `CCCC1O[C@@H]2C[C@H]3[C@@H]4CCC5=CC(=O)C=C[C@]5(C)[C@H]4[C@@H](O)C[C@]3(C)[C@]2(C(=O)CO)O1` (some centres unmarked) [Budesonide], 2.69; under `NC(CO)C(=O)NNCc1ccc(O)c(O)c1O` (centres unmarked) [Benserazide hydrochloride], 1.61. The same measure, in the same setting: under `COc1ccc(OC)c(C(O)C(C)N)c1` (centres unmarked) [Methoxamine hydrochloride] stands 2.21.

In the case of `Oc1ccc(O)cc1` [Hydroquinone], the “training … after 2DG pre-treatment” value in experiment [2] (setting [4]) is recorded as “not susceptible to suppression of training”. In addition, the fold induction at 1 µM in experiment [1] came to 1.68. For the same molecule, in the experiment on peritoneal cells (setting [5]), the “cytokine MFIs among TNF-α+ neutrophils and IL-6+ eosinophils” value is given as “significant increases”; the “number of TNF-α+ and IL-6+ cells” value was “no increase”.

Take `CC(=O)OCC(=O)[C@@]1(O)[C@H](OC(C)=O)C[C@H]2[C@@H]3CCC4=CC(=O)C=C[C@]4(C)[C@@]3(F)[C@@H](O)C[C@@]21C` [Triamcinolone diacetate]: the fold induction at 1 µM in experiment [1] amounted to 1.73. Take `CC(Cc1ccc(O)cc1)NCC(O)c1cc(O)cc(O)c1` (centres unmarked) [Fenoterol hydrobromide]: the “training … after 2DG pre-treatment” value in experiment [2] (setting [4]) is given as “not susceptible to suppression of training”. Moreover, the fold induction at 1 µM in experiment [1] was determined as 1.62. Consider `C=C1CCC2C(CC2(C)C)C(=O)CCC1O` (centres unmarked) [Isokobusone], for which the fold induction at 1 µM in experiment [1] came out at 1.66.

Regarding `C[C@]12C=CC(=O)C=C1CC[C@@H]1[C@@H]2[C@@H](O)C[C@@]2(C)[C@H]1CC[C@]2(O)C(=O)CO` [Prednisolone], the fold induction at 1 µM in experiment [1] is 2.06. For `O=c1c(O)c(-c2cc(O)c(O)c(O)c2)oc2cc(O)cc(O)c12` [Myricetin], in experiment [2] (setting [4]), the “training … after 2DG pre-treatment” value was “not susceptible to suppression of training”. Further, the fold induction at 1 µM in experiment [1] was found to be 2.19. In addition, the “cell count in the peritoneal lavage” value with peritoneal cells (2 h after challenge) is “increased cell count”. In the experiment on peritoneal cells (setting [5]), the “number of TNF-α+ and IL-6+ eosinophils” value is listed as “significant increases”. The “IL-6 production following challenge” value in experiment [3] is “increased production of IL-6”. For `CC(=O)OCC(=O)[C@@]12OC(C)(C)O[C@@H]1C[C@H]1[C@@H]3C[C@H](F)C4=CC(=O)C=C[C@]4(C)[C@@]3(F)[C@@H](O)C[C@@]12C` [Fluocinonide], the fold induction at 1 µM in experiment [1] turned out to be 2.29. The same measure, in the same setting: under `Cc1cc2cc3c(C)cc(=O)oc3c(C)c2o1` [Trioxsalen] stands 1.66; under `CC1(C)C(C(Cl)Cl)C2(Cl)C(Cl)C(Cl)C1(Cl)C2(Cl)Cl` (centres unmarked) [Toxaphene], 1.63; under `CC(=O)N[C@@H](CC(=O)O)C(=O)O` [N-Acetylaspartic acid], 1.6. Same read-out and setting: under `CC(C)[C@H]1CC[C@H](C(=O)N[C@H](Cc2ccccc2)C(=O)O)CC1` [Nateglinide] stands 1.6. On to `CC(C)=CCC/C(C)=C\CO` [Nerol], for which the “training … after 2DG pre-treatment” value in experiment [2] (setting [4]) is on record as “not susceptible to suppression of training”. In addition, the fold induction at 1 µM in experiment [1] amounted to 1.73. Consider `Cc1cc(CC(=O)O)n(C)c1C(=O)c1ccc(Cl)cc1` [Zomepirac Sodium], for which, in experiment [1], the fold induction at 1 µM came to 1.7.
